Assay results: patent publication US6683157B2, “Variant human α7 acetylcholine receptor subunit, and methods of production and use thereof” (priority 1996, dated 2004)
“Also recorded” adds a separate entry of the source. Counter-ions that a name gives are not always drawn. Like-named read-outs stand apart in the source and are kept apart here.

Assays:
[1] = molecular target: T1, human α7V274T nAChR (Homo sapiens, UniProt P36544, V274T); assay: Agonist concentration-response, two-electrode voltage-clamp in Xenopus laevis oocytes; assay type: cell-based
T1 construct: This created a new cDNA encoding a full length α7 subunit; expressed in transfected cells

[2] = molecular target: T2, human α7 wild type nAChR (Homo sapiens, UniProt P36544); assay: as above; assay type: cell-based; settings: for Hill coefficient: Hill equation fit
T2 construct: This created a new cDNA encoding a full length α7 subunit; expressed in transfected cells; host or cells: Xenopus laevis oocytes injected with receptor RNA or DNA

[3] = tested on: chick α7V251T nAChR; settings: cited from earlier work
[4] = molecular target: T2, human α7 wild type nAChR; assay: nAChR antagonists applied alone as agonists, current response in Xenopus oocytes; assay type: cell-based; settings: ligand μM: DHβE 10, d-TC 1, MLA 0.01, MEC 10, ATROP 2
[5] = molecular target: T1, human α7V274T nAChR; assay: Inhibition of the response to ACh in Xenopus oocytes; assay type: cell-based; settings: for % Inhibition, 1 μM ACh: inhibition of response to 1 μM ACh; for % Inhibition, 1 μM ACh / % Inhibition, 10 μM ACh: ligand μM: DHβE 10, d-TC 1, MLA 0.01, MEC 10, ATROP 2; for % Inhibition, 10 μM ACh: inhibition of response to 10 μM ACh; for inhibition of ACh response: MEC 10 μM against 1 μM ACh in three of the five oocytes inhibited by atropine
[6] = molecular target: T1, human α7V274T nAChR; assay: nAChR antagonists applied alone as agonists, current response in Xenopus oocytes; assay type: cell-based; settings: for % Activation, 10 μM ACh: compared to activation by 10 μM ACh, ligand μM: DHβE 10, d-TC 1, MLA 0.01, MEC 10, ATROP 2, mean ± s.e.m. (n)
[7] = molecular target: chick α7V251T nAChR (Gallus gallus, UniProt P22770, V274T); settings: 10 μM DHβE; cited from earlier work
[8] = molecular target: T2, human α7 wild type nAChR; assay: Inhibition of the response to ACh in Xenopus oocytes; assay type: cell-based; settings: ligand μM: DHβE 10, d-TC 1, MLA 0.01, MEC 10, ATROP 2; for % Inhibition, % of 200 μM ACh: inhibition of response to 200 μM ACh; for % Inhibition, % of 10 mM ACh: inhibition of response to 10 mM ACh
[9] = molecular target: chick α7 nAChR (Gallus gallus, UniProt P22770); settings: cited from earlier work
[10] = molecular target: human α7 nAChR (Homo sapiens, UniProt P36544); settings: cited from earlier work
[11] = molecular target: chick α7L247T nAChR (Gallus gallus, UniProt P22770, L270T); settings: cited from earlier work

| Structure (SMILES) | Hill coefficient ([1]; Hill equation fit) | % Activation, % of 10 mM ACh [4] | % Inhibition, 1 μM ACh [5] | % Inhibition, 10 μM ACh [5] | % Activation, 10 μM ACh [6] | % Inhibition, % of 200 μM ACh [8] | % Inhibition, % of 10 mM ACh [8] | also measured |
| --- | --- | --- | --- | --- | --- | --- | --- | --- |
| CN1CCCC1c1cccnc1 (single isomer, unassigned; (-)) [(−)-nicotine] | 1.3±0.2 |  |  |  |  |  |  | Hill coefficient [2]: 1.2±0.2 |
| Cc1ncccc1OC[C@@H]1CCCN1 [ABT-089] |  |  |  |  |  |  |  | EC50 [1]: 28 ± 3 µM; efficacy ([1]; responses normalized to the response to ACh): 40±1%; agonist type [2]: partial agonists |
| CC(=O)OCC[N+](C)(C)C [ACh, Acetylocholine chloride] | 1.8±0.2 |  |  |  |  |  |  | increase in ACh potency versus chick α7 wild type [3]: 180 fold; Hill coefficient [2]: 0.94±0.09 |
| Br.CO[C@H]1CC=C2CCN3CCC4=C(CC(=O)OC4)[C@]23C1 [DHβE, Dihydro-β-erythroidine hydrobromide] |  | −0.2 ± 0.1 (5) % | 69 ± 5 (4) % | 52 ± 6 (4) % | 4 ± 1 (4) % | 41 ± 10 (4) % | 23 ± 2 (4) % | response as % of the ACh response [7]: 66% |
| C[N+]1(C)CCN(c2ccccc2)CC1 [DMPP, 1,1-dimethyl-4-phenylpiperazinium] |  |  |  |  |  |  |  | agonist type [9]: very weak partial agonist; agonist type [10]: highly efficacious agonist |
| COc1ccc(/C=C2\CCCN=C2c2cccnc2)c(OC)c1 [GTS-21] | 1.5±0.1 |  |  |  |  |  |  | agonist type [1]: full agonist; EC50 ([1]; peak amplitude normalized to ACh response, Hill equation fit, holding potential −60 mV): 4.3 ± 0.3 µM; agonist type [2]: partial agonists |
| CNC1(C)C2CCC(C2)C1(C)C (centres unmarked) [MEC, mecamylamine hydrochloride] |  | −0.3 ± 0.2 (3) % | 101 ± 1 (4) % | 53 ± 2 (4) % | −1.9 ± 0.2 (4) % | 82 ± 1 (3) % | 85 ± 3 (3) % | inhibition of ACh response [5]: completely blocked |
| COc1cc2c3cc1Oc1cc(ccc1O)C[C@@H]1c4c(cc(OC)c(O)c4Oc4ccc(cc4)C[C@@H]3N(C)CC2)CC[N+]1(C)C.Cl.O.O.O.O.O.[Cl-] [d-TC, d-tubocurarine chloride] |  | −0.1 ± 0.1 (5) % | 99 ± 1 (4) % | 97 ± 3 (3) % | −2 ± 1 (4) % | 28 ± 2 (4) % | 25 ± 3 (4) % | activation of inward current [11]: full response; inhibition of ACh response [5]: potent antagonist; outward current amplitude, % of the maximal inward current response to ACh ([6]; MLA 10 nM, MEC 10 μM, d-TC 1 μM (d-TC in two of four oocytes)): 3-5%; current response to ligand alone ([6]; d-TC 1 μM, atropine 2 μM): did not elicit agonist-like inward currents; also recorded: did not activate inward currents |
